The values that follow come from patent publication US9511134B2, “Inducing immune responses to influenza virus using polypeptide and nucleic acid compositions” (priority 2006, dated 2016).

Several values for one entry are separate records, joined by “and”; a condition that tells them apart may be missing. Equal values may be shown once. Read-outs that look alike come from different tables or passages of the source.

The target in assay [1] is T1, DRB1*1501 (Homo sapiens, UniProt P01903+P01911).
T1 construct: made in house; host or cells: EBV-transformed homozygous human B cell lines, transfected fibroblasts or single-allele 721.221 transfectants
The assay can be described thus: biochemical. The assay is classed as binding. The conditions noted are these: read-out: IC50 nM to purified HLA DRB1*1501.

The target of assay [2] is T2, DRB1*0101 (Homo sapiens, UniProt P01903+P01911, A100R/D57E/F55L/F60I/F76Y/I96L/L162R/M171V/P40L/Q125E/R42F/V115G/Y59C).
T2 construct: made in house; host or cells: EBV-transformed homozygous human B cell lines, transfected fibroblasts or single-allele 721.221 transfectants
The assay can be described thus: biochemical. The assay is classed as binding.

Assay [3] has as its target DRB1*0701 (Homo sapiens, UniProt P01903+P01911, A100R/A102G/A103Q/D57E/D86V/E43K/F76Y/K127E/L162R/M171V/P40G/Q125H/Q99D/R33Q/R42Y/R54Q/S133A/S66F/T210M/V115G/Y107V/Y59L/Y89S). The assay can be described thus: biochemical. The assay is classed as binding.
The target in assay [4] is T3, DRB1*0401 (Homo sapiens, UniProt P01903+P01911, A100K/A169T/F76Y/I96L/K127E/L162R/M171V/N62H/P40V/Q125Y/R42H/S133A/S149N/S66Y/V115G/V209L/W38E).
T3 construct: made in house; host or cells: EBV-transformed homozygous human B cell lines, transfected fibroblasts or single-allele 721.221 transfectants
The assay is described as follows: biochemical. Conditions: read-out: IC50 nM to purified HLA DRB1*0401. It counts as binding.

Assay [5] addresses DRB1*1302 (Homo sapiens, UniProt P01903+P01911, A100E/A169T/K41T/L162R/M171V/P40S/Q125H/Q178H/Q39Y/Q99D/R42S/S66N/T262R/V115G/W38E/Y61H). The assay is described as follows: biochemical. It counts as binding. Conditions: read-out: IC50 nM to purified HLA DRB1*1302.
The target of assay [6] is DRB1*0802 (Homo sapiens, UniProt P01903+P01911, A100R/A103L/A169T/F76Y/H45Y/I96F/K41T/L162R/M171V/P40S/Q125H/Q178H/Q39Y/Q99D/R218S/R42G/S66Y/V115G/W38E). The assay can be described thus: biochemical. The assay is classed as binding.
Assay [7] concerns the target DRB1*0404 (Homo sapiens, UniProt P01903+P01911, A100R/A169T/F76Y/I96L/K127E/L162R/M171V/N62H/P40V/Q125Y/R42H/S133A/S149N/S66Y/V209L/W38E). The assay is described as follows: biochemical. It counts as binding.
Assay [8] concerns the target T4, DRB4*0101 (Homo sapiens, UniProt P01903+P13762, G164S).
T4 construct: made in house; host or cells: EBV-transformed homozygous human B cell lines, transfected fibroblasts or single-allele 721.221 transfectants
The assay is described as follows: biochemical. The assay is classed as binding.

For assay [9], the target named is T5, DRB5*0101 (Homo sapiens, UniProt P01903+Q30154).
T5 construct: made in house; host or cells: EBV-transformed homozygous human B cell lines, transfected fibroblasts or single-allele 721.221 transfectants
The assay is described as follows: biochemical. It counts as binding.

Assay [10] concerns the target DRB1*0901 (Homo sapiens, UniProt P01903+P01911, A100R/A103E/D57H/D86V/F55Y/F60I/F76Y/I96F/K127E/L162R/M171V/P40D/Q125H/Q99R/R33Q/R42F/S133A/S66N/T210M/V115G/W38K/Y107V/Y59G/Y89S). The assay can be described thus: biochemical. It counts as binding. The conditions noted are these: read-out: IC50 nM to purified HLA DRB1*0901.
Assay [11] addresses DRB1*1101 (Homo sapiens, UniProt P01903+P01911, A100R/A169T/A87E/I96F/K41T/L162R/M171V/P40S/Q125H/Q178H/Q39Y/Q99D/R42S/S66Y/T262R/V115G/W38E). The assay is described as follows: biochemical. Conditions: read-out: IC50 nM to purified HLA DRB1*1101. It counts as binding.
Assay [12] concerns the target DRB1*0405 (Homo sapiens, UniProt P01903+P01911, A100R/A169T/D86S/F76Y/I96L/K127E/L162R/M171V/N62H/P40V/Q125Y/R42H/S133A/S149N/S66Y/V115G/V209L/W38E). The assay can be described thus: biochemical. It counts as binding. The conditions noted are these: read-out: IC50 nM to purified HLA DRB1*0405.
In assay [13] the test system is CD4+ PBMC. It counts as cell-based, human. Conditions: IFNγ ELISPOT, PBMC rested five days, CD8-depleted.
Setting [14] is: IC50 nM to purified HLA DRB1*0101.
Where [15] appears, read: IC50 nM to purified HLA DRB1*0101, Table 4.
The mark [16] stands for this setting: IC50 nM to purified HLA DRB1*0404.

Chain of DRB1*1101 (P01903 26-254 limits assumed, other chains not shown): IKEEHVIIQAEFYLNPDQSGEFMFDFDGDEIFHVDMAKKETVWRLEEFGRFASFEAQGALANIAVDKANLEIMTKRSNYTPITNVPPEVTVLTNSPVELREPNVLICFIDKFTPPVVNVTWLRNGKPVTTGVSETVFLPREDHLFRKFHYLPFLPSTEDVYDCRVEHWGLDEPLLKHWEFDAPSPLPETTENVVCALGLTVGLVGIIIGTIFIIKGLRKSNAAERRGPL
Chain of DRB1*1302 (P01903 26-254 limits assumed, other chains not shown): as above

As to `CC[C@H](C)[C@H](NC(=O)[C@H](CCC(N)=O)NC(=O)[C@H](CC(C)C)NC(=O)[C@H](CCSC)NC(=O)[C@H](CC(C)C)NC(=O)[C@@H](N)CO)C(=O)NCC(=O)N[C@@H](CC(N)=O)C(=O)N[C@@H](CCSC)C(=O)N[C@H](C(=O)N[C@@H](CO)C(=O)N[C@H](C(=O)N[C@@H](Cc1c[nH]c2ccccc12)C(=O)N[C@H](C(=O)N[C@@H](CO)C(=O)N[C@@H](Cc1c[nH]cn1)C(=O)N[C@@H](CO)C(=O)O)C(C)C)[C@@H](C)CC)[C@@H](C)CC` [Flu.NA.21], the IC50 was 34 nM in assay [1] (Table 4); 34 nM and 8 nM in assay [1]; 36 nM and 8 nM in assay [2] (setting [14]); 36 nM in assay [2] (setting [15]); 13 nM in assay [3]; 480 nM in assay [4] (Table 4). Further, the IC50 in assay [5] was 44 nM and 10 nM; in assay [6], 89 nM; in assay [7] (setting [16]) it was 3 nM; in assay [8] (IC50 nM to purified HLA DRB4*0101, Table 4), 746 nM; in assay [9], 24 nM; in [10], 86 nM. Also, the IC50 in assay [11] was determined as 83 nM; in assay [12], 66 nM.
For the molecule `CC[C@H](C)[C@H](NC(=O)[C@H](CC(C)C)NC(=O)[C@H](C)NC(=O)[C@H](CO)NC(=O)[C@H](CCCNC(=N)N)NC(=O)[C@H](C)NC(=O)[C@H](CC(C)C)NC(=O)[C@H](Cc1ccccc1)NC(=O)[C@@H](NC(=O)[C@@H](N)CC(C)C)[C@@H](C)CC)C(=O)N[C@@H](CC(C)C)C(=O)N[C@@H](CCCNC(=N)N)C(=O)NCC(=O)N[C@@H](CO)C(=O)N[C@H](C(=O)O)C(C)C` [Flu.NP.259], the IC50 is 23 nM in assay [1] (Table 4); 23 nM and 15 nM in [1]; 8.8 nM and 5.3 nM in assay [2] (setting [14]); 8.8 nM in assay [2] (setting [15]); 7 nM in assay [3]; 17 nM and 12 nM in assay [5]. The half-maximal inhibitory concentration (IC50) in [6] was 11 nM; in assay [7] (setting [16]), 97 nM; in [9] it was 10 nM; in [10], 19 nM; in assay [11], 86 nM.
With `CC[C@H](C)[C@H](NC(=O)[C@H](CCCCN)NC(=O)[C@H](CC(N)=O)NC(=O)[C@H](C)NC(=O)[C@H](CCCCN)NC(=O)[C@H](CCC(=O)O)NC(=O)[C@H](CC(C)C)NC(=O)[C@H](Cc1ccc(O)cc1)NC(=O)[C@H](Cc1ccc(O)cc1)NC(=O)[C@@H](NC(=O)[C@H](Cc1c[nH]cn1)NC(=O)[C@@H](NC(=O)[C@H](CCC(=O)O)NC(=O)[C@H](CCCNC(=N)N)NC(=O)[C@@H](N)CCCNC(=N)N)C(C)C)[C@@H](C)CC)C(=O)O` [Flu.PA.127], the IC50 was determined as 4.5 nM in [1] (Table 4); 4.5 nM in assay [1]; 34 nM in assay [2] (read-out: IC50 nM to purified HLA DRB1*0101); 23 nM in [3] (read-out: IC50 nM to purified HLA DRB1*0701, Table 4); 63 nM in [4]; 150 nM in assay [5]. The IC50 was 95 nM in assay [6] (read-out: IC50 nM to purified HLA DRB1*0802); 181 nM in assay [7] (read-out: IC50 nM to purified HLA DRB1*0404); 5 nM in assay [8] (read-out: IC50 nM to purified HLA DRB4*0101, Table 4); 25 nM in assay [9] (read-out: IC50 nM to purified HLA DRB5*0101, Table 4); 851 nM in [10]; 96 nM in assay [11]. Moreover, the IC50 in assay [12] was 1490 nM. Further, the “Human influenza epitope-specific immune response, donor 3501” value in [13] is “Positive (Donors were considered positive for a peptide if the number of spots was over 3 times background as determined by responses to irrelevant peptides (non influenza))”.

One may read the IC50 as the midpoint of a concentration-inhibition curve.
